Laboratory results published in ChEMBL document CHEMBL1201862, “PubChem BioAssay data set” (2004).
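A five-concentration, 48-hour dose response in 96-well plates underlies each endpoint, interpolated linearly between surrounding concentrations. The concentration for 50% growth inhibition is given as GI50.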 Active and inactive are the calls of the source. No stated cut-off is given here; in the data, active = GI50 up to about 1.1 µM and inactive = higher.

Columns and labels:
Experiment in all cases: NCI anticancer screen, dose series, 48 h
U-251 = system: U-251
CAKI-1 = system: CAKI-1
SNB-75 = system: SNB-75
OVCAR-8 = system: OVCAR-8
KM12 = system: KM12
SW-620 = system: SW-620
HCC 2998 = system: HCC 2998
PC-3 = system: PC-3
SF-295 = system: SF-295
OVCAR-3 = system: OVCAR-3
Malme-3M = system: Malme-3M
SF-268 = system: SF-268
SK-MEL-28 = system: SK-MEL-28
A498 = system: A498
SN12C = system: SN12C
RPMI-8226 = system: RPMI-8226
TK-10 = system: TK-10
HCT-116 = system: HCT-116
MOLT-4 = system: MOLT-4
OVCAR-4 = system: OVCAR-4
IGROV-1 = system: IGROV-1
CCRF-CEM = system: CCRF-CEM
UO-31 = system: UO-31
M14 = system: M14
SK-OV-3 = system: SK-OV-3
OVCAR-5 = system: OVCAR-5
HCT-15 = system: HCT-15
NCI-H460 = system: NCI-H460
SF-539 = system: SF-539
NCI/ADR-RES = system: NCI/ADR-RES
NCI-H522 = system: NCI-H522
HT-29 = system: HT-29
SK-MEL-2 = system: SK-MEL-2
T47D = system: T47D
Hs-578T = system: Hs-578T
HL-60 = system: HL-60
LOX IMVI = system: LOX IMVI
MCF7 = system: MCF7
COLO 205 = system: COLO 205
NCI-H23 = system: NCI-H23
K562 = system: K562
SNB-19 = system: SNB-19
786-0 = system: 786-0
BT-549 = system: BT-549
MDA-MB-231 = system: MDA-MB-231
HOP-92 = system: HOP-92
MDA-N = system: MDA-N
A549 = system: A549
EKVX = system: EKVX
HOP-62 = system: HOP-62
RXF 393 = system: RXF 393
MDA-MB-435 = system: MDA-MB-435
SK-MEL-5 = system: SK-MEL-5
UACC-62 = system: UACC-62
ACHN = system: ACHN
NCI-H226 = system: NCI-H226
DU-145 = system: DU-145
UACC-257 = system: UACC-257

C[C@@H](CC(O)C(O)C(C)(C)O)C1CCC23CC12CCC1[C@@]2(C)CCC(=O)C(C)(C)C2CC(OC2OC(CO)C(O)C(O)C2O)[C@]13C (stereo not given in full)
GI50 (U-251): > 10 µM (inactive)
GI50 (CAKI-1): > 10 µM (inactive)
GI50 (SNB-75): > 10 µM (inactive)
GI50 (OVCAR-8): > 10 µM (inactive)
GI50 (KM12): > 10 µM (inactive)
GI50 (SW-620): > 10 µM (inactive)
GI50 (HCC 2998): > 10 µM (inactive)
GI50 (PC-3): > 10 µM (inactive)
GI50 (SF-295): > 10 µM (inactive)
GI50 (OVCAR-3): > 10 µM (inactive)
GI50 (Malme-3M): > 10 µM (inactive)
GI50 (SF-268): > 10 µM (inactive)
GI50 (SK-MEL-28): > 10 µM (inactive)
GI50 (A498): > 10 µM (inactive)
GI50 (SN12C): > 10 µM (inactive)
GI50 (RPMI-8226): > 10 µM (inactive)
GI50 (TK-10): > 10 µM (inactive)
GI50 (HCT-116): > 10 µM (inactive)
GI50 (MOLT-4): > 10 µM (inactive)
GI50 (OVCAR-4): > 10 µM (inactive)
GI50 (IGROV-1): > 10 µM (inactive)
GI50 (CCRF-CEM): > 10 µM (inactive)
GI50 (UO-31): > 10 µM (inactive)
GI50 (M14): > 10 µM (inactive)
GI50 (SK-OV-3): > 10 µM (inactive)
GI50 (OVCAR-5): > 10 µM (inactive)
GI50 (HCT-15): > 10 µM
GI50 (NCI-H460): > 10 µM (inactive)
GI50 (SF-539): > 10 µM (inactive)
GI50 (NCI/ADR-RES): > 10 µM (inactive)
GI50 (NCI-H522): > 10 µM (inactive)
GI50 (HT-29): > 10 µM (inactive)
GI50 (SK-MEL-2): > 10 µM (inactive)
GI50 (T47D): > 10 µM (inactive)
GI50 (Hs-578T): > 10 µM (inactive)
GI50 (HL-60): > 10 µM (inactive)
GI50 (LOX IMVI): > 10 µM (inactive)
GI50 (MCF7): > 10 µM (inactive)
GI50 (COLO 205): > 10 µM (inactive)
GI50 (NCI-H23): > 10 µM (inactive)
GI50 (K562): > 10 µM (inactive)
GI50 (SNB-19): > 10 µM (inactive)
GI50 (786-0): > 10 µM (inactive)
GI50 (BT-549): > 10 µM (inactive)
GI50 (MDA-MB-231): > 10 µM (inactive)
GI50 (HOP-92): > 10 µM (inactive)
GI50 (MDA-N): > 10 µM (inactive)
GI50 (A549): > 10 µM (inactive)
GI50 (EKVX): > 10 µM (inactive)
GI50 (HOP-62): > 10 µM (inactive)
GI50 (RXF 393): > 10 µM (inactive)
GI50 (MDA-MB-435): > 10 µM (inactive)
GI50 (SK-MEL-5): > 10 µM (inactive)
GI50 (UACC-62): > 10 µM (inactive)
GI50 (ACHN): > 10 µM (inactive)
GI50 (NCI-H226): > 10 µM (inactive)
GI50 (DU-145): > 10 µM (inactive)

CNc1ccc(-c2nc3cc(C)ccc3o2)cc1
GI50 (U-251): 58.6 µM (inactive)
GI50 (CAKI-1): > 100 µM (inactive)
GI50 (SNB-75): 14.7 µM (inactive)
GI50 (OVCAR-8): 58.1 µM (inactive)
GI50 (KM12): > 100 µM (inactive)
GI50 (SW-620): > 100 µM (inactive)
GI50 (HCC 2998): > 100 µM (inactive)
GI50 (PC-3): > 100 µM (inactive)
GI50 (SF-295): 28.9 µM (inactive)
GI50 (OVCAR-3): > 100 µM (inactive)
GI50 (Malme-3M): > 100 µM (inactive)
GI50 (SF-268): 42.7 µM (inactive)
GI50 (SK-MEL-28): > 100 µM (inactive)
GI50 (A498): 27.4 µM (inactive)
GI50 (UACC-257): > 100 µM (inactive)
GI50 (SN12C): > 100 µM (inactive)
GI50 (RPMI-8226): > 100 µM (inactive)
GI50 (TK-10): 67.8 µM (inactive)
GI50 (HCT-116): > 100 µM (inactive)
GI50 (MOLT-4): 34.9 µM (inactive)
GI50 (OVCAR-4): > 100 µM (inactive)
GI50 (IGROV-1): > 100 µM (inactive)
GI50 (CCRF-CEM): > 100 µM (inactive)
GI50 (UO-31): 72.3 µM (inactive)
GI50 (M14): > 100 µM (inactive)
GI50 (SK-OV-3): 18.2 µM (inactive)
GI50 (OVCAR-5): > 100 µM (inactive)
GI50 (HCT-15): > 100 µM
GI50 (NCI-H460): > 100 µM (inactive)
GI50 (SF-539): 49.5 µM (inactive)
GI50 (NCI/ADR-RES): 64.6 µM (inactive)
GI50 (NCI-H522): 88.1 µM (inactive)
GI50 (HT-29): > 100 µM (inactive)
GI50 (SK-MEL-2): > 100 µM (inactive)
GI50 (T47D): 13.8 µM (inactive)
GI50 (Hs-578T): 64.6 µM (inactive)
GI50 (HL-60): > 100 µM (inactive)
GI50 (LOX IMVI): > 100 µM (inactive)
GI50 (MCF7): > 100 µM (inactive)
GI50 (COLO 205): > 100 µM (inactive)
GI50 (NCI-H23): > 100 µM (inactive)
GI50 (K562): > 100 µM (inactive)
GI50 (SNB-19): 57.5 µM (inactive)
GI50 (786-0): 47.3 µM (inactive)
GI50 (BT-549): 45.8 µM (inactive)
GI50 (MDA-MB-231): 40.1 µM (inactive)
GI50 (HOP-92): 84.9 µM (inactive)
GI50 (MDA-N): > 100 µM (inactive)
GI50 (A549): > 100 µM (inactive)
GI50 (EKVX): 32.4 µM (inactive)
GI50 (HOP-62): 19.9 µM (inactive)
GI50 (RXF 393): 22.4 µM (inactive)
GI50 (MDA-MB-435): > 100 µM (inactive)
GI50 (SK-MEL-5): > 100 µM (inactive)
GI50 (UACC-62): 68.5 µM (inactive)
GI50 (ACHN): 57.3 µM (inactive)
GI50 (NCI-H226): 45.3 µM (inactive)
GI50 (DU-145): > 100 µM (inactive)
